Measurements as given in US8080517B2, “Cell-permeable peptide inhibitors of the JNK signal transduction pathway” (Xigen SA, priority 2005, dated 2011).

Legend:
[1] = transient global ischemia; cited from earlier work
[2] = tested on: primary embryonic cultures and differentiated PC12 cells; conditions: after trophic withdrawal; also in mice treated with 1-methyl-4-phenyl tetrahydropyridine; cited from earlier work
[3] = tested on: chick embryonic dorsal root ganglion, sympathetic, ciliary and motor neurons; conditions: cited from earlier work
WiDr cells = assay: Irradiation (30 Gy) induced apoptosis; assay type: cell-based, human; conditions: 1 μM added 30 minutes before 30 Gy, analyzed 48 hours later
Method: JNK is also activated by ionizing radiation. To determine whether inventive TAT-IB(s) peptides would provide protection against radiation-induced JNK damage, “WiDr” cells were irradiated (30 Gy) in presence or absence of D-TAT, inventive L-TAT-IB1(s) or inventive D-TAT-IB1(s) peptides (1 μM added 30 minutes before irradiation). Control cells (CTRL) were not irradiated. Cells were analyzed 48 hours later by means of PI and Hoechst 3342 staining, as described above. N=3, SEM are indicated.

AP-1 DNA binding complex = assay: Gel retardation assay with AP-1 probe, nuclear extracts of TNF-α treated HeLa cells; assay type: cell-based; conditions: peptide added 30 minutes before TNF-α 5 ng/ml
βTC-3 cells = assay: IL-1β induced pancreatic β-cell death, peptide treatment, propidium iodide / Hoechst 33342 staining; assay type: cell-based; conditions: one single addition 1 μM, IL-1β 10 ng/ml every two days, 15 days
Method: We investigated the effects of the inventive L-TAT-IB(s) peptides on the promotion of β-cell apoptosis elicited by IL-1. βTC-3 cell cultures were incubated for 30 minutes with 1 μM of inventive L-TAT-IB1(s) peptides followed by 10 ng/mL of IL-1. A second addition of peptide (1 μM) was performed 24 hours later. Apoptotic cells were counted after two days of incubation with IL-1 β using propidium iodide (red stained cell are dead cells) and Hoechst 33342 (blue stained cell are cells with intact plasma membrane) nuclear staining.
Long term inhibition of IL-1 induced cells death was examined by treating βTC-3 cells as described above, except that incubation of the cells with the peptides and IL-1 β was sustained for 12 days. Additional peptides (1 μM) were added each day and additional IL-1 β (10 ng/mL) was added every 2 days. […] Taken together, these experiments provide evidence that inventive TAT-IB(s) peptides are biologically active molecules able to prevent the effects of JNK signaling on cell fate.
Inhibition of IL-1 β induced pancreatic β-cell death by the inventive D-TAT-IB1(s) peptide was analyzed. βTC-3 cells were incubated as described above for 30 minutes with one single addition of the indicated peptides (1, μM), then IL-1 (10 ng/ml) was added.
Apoptotic cells were then counted after two days of incubation with IL-1 β by use of Propidium Iodide and Hoechst 33342 nuclear staining. A minimum of 1,000 cells were counted for each experiment. Standard Error of the Means (SEM) are indicated, n=5.
Long term inhibition of IL-1P induced cell-death by the D-TAT-IB1 peptide was also analyzed. βTC-3 cells were incubated as above for 30 minutes with one single addition of the indicated peptides (1 μM), then IL-1 β (10 ng/ml) was added, followed by addition of the cytokine every two days. Apoptotic cells were then counted after 15 days of incubation with IL-1 by use of propidium iodide and Hoechst 33342 nuclear staining. […] A minimum of 1.000 cells were counted for each experiment.

Q: For `N#CC(c1ccnc(NCCc2cccnc2)n1)c1nc2ccccc2s1` (stereo not drawn) [AS601245], which “delayed loss of hippocampal CA1 neurons” value [1] is on record?
A: significant protection against the delayed loss of hippocampal CA1 neurons

Q: With `CCSCc1ccc2c(c1)c1c3c(c4c5cc(CSCC)ccc5n5c4c1n2[C@H]1C[C@](O)(C(=O)OC)[C@]5(C)O1)CNC3=O` [CEP-1347] as the compound, how does the neuronal survival [2] read?
A: promotes neuronal survival at dosages that inhibit activation of the c-Jun amino-terminal kinases (JNKs)

Q: What about the “long term-survival of cultured neurons” value [3] of the same compound?
A: can promote long term-survival

Q: With “NH2-GRKKRRQRRRPPRPKRPTTLNLFPQVPRSQD-COOH (H-GRKKRRQRRRPPRPKRPTTLNLFPQVPRSQD-OH) [L-TAT-IB1(s)]” as the compound, how does the “prevention of irradiation induced apoptosis” value (WiDr cells) read?
A: able to prevent irradiation induced apoptosis

Q: And the “formation of the AP-1 DNA binding complex” value (AP-1 DNA binding complex)?
A: decrease the formation of the AP-1 DNA binding complex in the presence of TNF-α

Q: And the “long term inhibition of IL-1β induced cell-death” value (βTC-3 cells)?
A: but not inventive L-TAT-IB1 (s), was able to confer long term (15 day) protection
